Tested on: K12877-001-R-J1-PDC complex spheroid viability
Experiment: Anticancer human tumor K12877-001-R-J1-PDC patient-derived lung adenocarcinoma cell line growth inhibition [RAS]
Details: for IC50: curve of first compound; for viability, T/C: stronger effect = lower value
Summary of the method: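 Agents were tested in combination matrices in half-log decrements from a top concentration at or near clinical Cmax (10 microM if undetermined). Targets were multi-cell spheroids of tumour lines plus HUVEC and MSC stromal cells.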
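Note: spheroids exposed to agents for one week before readout.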
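Throughout, for viability, T/C: tumour cells co-cultured with HUVEC and mesenchymal stem cells in spheroids.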

Compound: O=C(c1ccc(F)c(F)c1Nc1ccc(I)cc1F)N1CC(O)([C@@H]2CCCCN2)C1 + CCn1c(-c2cc(N3CCN(C)CC3)cnc2C(C)OC)c2c3cc(ccc31)-c1csc(n1)CC(NC(=O)C1CC1C)C(=O)N1CCCC(N1)C(=O)OCC(C)(C)C2
- IC50 (second compound 0.000949 µM): > 1000 nM
- IC50 (second compound 0.003 µM): > 1000 nM
- IC50 (second compound 0.00949 µM): > 1000 nM
- IC50 (second compound 0.03 µM): 508 nM
- IC50 (second compound 0.0949 µM): 98.8 nM
- IC50 (second compound 0.3 µM): 58.5 nM
- viability, T/C (second compound 0.000949 µM, first compound 0.00316 µM): 79.6%
- viability, T/C (second compound 0.000949 µM, first compound 0.01 µM): 71.2%
- viability, T/C (second compound 0.000949 µM, first compound 0.0316 µM): 66%
- viability, T/C (second compound 0.000949 µM, first compound 0.1 µM): 57.9%
- viability, T/C (second compound 0.000949 µM, first compound 0.316 µM): 71.4%
- viability, T/C (second compound 0.000949 µM, first compound 1 µM): 56%
- viability, T/C (second compound 0.003 µM, first compound 0.00316 µM): 71.4%
- viability, T/C (second compound 0.003 µM, first compound 0.01 µM): 66.6%
- viability, T/C (second compound 0.003 µM, first compound 0.0316 µM): 68.1%
- viability, T/C (second compound 0.003 µM, first compound 0.1 µM): 79%
- viability, T/C (second compound 0.003 µM, first compound 0.316 µM): 82.6%
- viability, T/C (second compound 0.003 µM, first compound 1 µM): 60.5%
- viability, T/C (second compound 0.00949 µM, first compound 0.00316 µM): 71.3%
- viability, T/C (second compound 0.00949 µM, first compound 0.01 µM): 65.8%
- viability, T/C (second compound 0.00949 µM, first compound 0.0316 µM): 82%
- viability, T/C (second compound 0.00949 µM, first compound 0.1 µM): 91.3%
- viability, T/C (second compound 0.00949 µM, first compound 0.316 µM): 80.7%
- viability, T/C (second compound 0.00949 µM, first compound 1 µM): 53.5%
- viability, T/C (second compound 0.03 µM, first compound 0.00316 µM): 110%
- viability, T/C (second compound 0.03 µM, first compound 0.01 µM): 105%
- viability, T/C (second compound 0.03 µM, first compound 0.0316 µM): 98.9%
- viability, T/C (second compound 0.03 µM, first compound 0.1 µM): 72.6%
- viability, T/C (second compound 0.03 µM, first compound 0.316 µM): 59.4%
- viability, T/C (second compound 0.03 µM, first compound 1 µM): 40%
- viability, T/C (second compound 0.0949 µM, first compound 0.00316 µM): 92.7%
- viability, T/C (second compound 0.0949 µM, first compound 0.01 µM): 90.4%
- viability, T/C (second compound 0.0949 µM, first compound 0.0316 µM): 77.8%
- viability, T/C (second compound 0.0949 µM, first compound 0.1 µM): 50.3%
- viability, T/C (second compound 0.0949 µM, first compound 0.316 µM): 29%
- viability, T/C (second compound 0.0949 µM, first compound 1 µM): 25.6%
- viability, T/C (second compound 0.3 µM, first compound 0.00316 µM): 80.2%
- viability, T/C (second compound 0.3 µM, first compound 0.01 µM): 74.9%
- viability, T/C (second compound 0.3 µM, first compound 0.0316 µM): 54.8%
- viability, T/C (second compound 0.3 µM, first compound 0.1 µM): 44.8%
- viability, T/C (second compound 0.3 µM, first compound 0.316 µM): 29.2%
- viability, T/C (second compound 0.3 µM, first compound 1 µM): 20.3%

Reference: PubChem BioAssay AID2060894 (Molecular Pharmacology Branch, DTP, NCI, 2025)
